Test results: US8163509B2, “Biological markers predictive of anti-cancer response to insulin-like growth factor-1 receptor kinase inhibitors” (The Regents of the University of Colorado, A Body Corporate, priority 2008, dated 2012)
Like-named read-outs stand apart in the source and are kept apart here.

Columns and labels:
HCT116 CRC cell line = experiment: SRB proliferation assay, 72 h; assay type: cell-based, human; settings: for IC50: Homo sapiens, HCT-116
Experimental: (§1) Cell proliferation was evaluated by SRB following exposure to OSI-906 for 72 hours. Cells were plated at an optimized density in 96-well plates, incubated overnight at 37° C., and then exposed to a serial dilution of OSI-906. After 72 hours incubation, cells were fixed with trichloroacetic acid and an SRB was performed as described in materials and methods.
Cell Lines and Culture. […] human colon cancer cell lines, were obtained from American Type Culture Collection (Manassas, Va.). Cells were grown in RPMI medium supplemented with 10% fetal bovine serum, 1% non-essential amino acids, 1% penicillin/streptomycin and were maintained at 37° C. in an incubator under an atmosphere containing 5% CO2. The cells were routinely screened for the presence of mycoplasma (MycoAlert, Cambrex Bio Science, Baltimore, Md.) and were exposed to PQIP when they reached approximately 70% confluence.
Multiple clones from the same transfection were pooled and grown under puromycin selection.
Cytotoxicity and Combination Effects: HT29, HCT116, RKO, and LS513 CRC cell lines were exposed to 0-10 nM SN-38 (7-Ethyl-10-hydroxy-camptothecin), 0-10 μM Oxaliplatin, or 0-50 μM 5-Fluorouracil (5-FU) for 72 hours. HT29, HCT116, RKO, and LS513 CRC cell lines were exposed to PQIP in combination with SN-38, Oxaliplatin or 5-FU. In all combinations, cells were seeded in 96-well flat bottomed plates and left overnight. PQIP and chemotherapy were both added for 72 hours. The results of the combinations were analyzed by the Chou and Talalay method with Calcusyn (Biosoft, Ferguson, Mo.).
The CRC cell lines were treated with a range of concentrations of PQIP (from 0.05-5 μM) for 72 hours.
To characterize the potential functionality that the selected genes may play in the sensitivity or resistance to PQIP, resistant and sensitive CRC cell lines were stably transfected with specific shRNA, treated with increasing concentrations of PQIP and proliferation assays performed to observe, if when manipulated, these genes alter responsiveness (i.e. the S or R phenotype). […] Both of these transfected cell lines were assayed for proliferation as described above.
Therefore, we investigated the effect of PQIP in combination with standard chemotherapy for CRC. […] Cells were exposed to PQIP and chemotherapy (SN38, oxaliplatin, or 5-Fluorouracil) concurrently for 72 h and combinations were assessed using the SRB assay.
Cell Lines and Culture: Twenty-seven human colon cancer cell lines, were obtained from American Type Culture Collection (Manassas, Va.). The GEO cells were a generous gift from Dr. Fortunato Ciardiello (Cattedra di Oncologia Medica, Dipartimento Medico-Chirurgico di Internistica Clinica e Sperimentale “F Magrassi e A Lanzara,” Seconda Università degli Studi di Napoli, Naples). All cells except GEO were grown in RPMI medium supplemented with 10% fetal bovine serum, 1% non-essential amino acids, 1% penicillin/streptomycin and were maintained at 37° C. in an incubator under an atmosphere containing 5% CO2.

IGF1R = target: T1, IGF1R (Homo sapiens, UniProt P08069); experiment: Immunoprecipitation and immunoblotting, IGF-2 induced receptor autophosphorylation; assay type: cell-based; settings: PQIP 0.4 μmol/L 3 h pre-exposure, IGF-2 100 ng/mL 10 minutes
T1 construct: endogenous in cells; host or cells: HT29 and HCT116 CRC cell lines
T1 sequence (P08069 31-1367): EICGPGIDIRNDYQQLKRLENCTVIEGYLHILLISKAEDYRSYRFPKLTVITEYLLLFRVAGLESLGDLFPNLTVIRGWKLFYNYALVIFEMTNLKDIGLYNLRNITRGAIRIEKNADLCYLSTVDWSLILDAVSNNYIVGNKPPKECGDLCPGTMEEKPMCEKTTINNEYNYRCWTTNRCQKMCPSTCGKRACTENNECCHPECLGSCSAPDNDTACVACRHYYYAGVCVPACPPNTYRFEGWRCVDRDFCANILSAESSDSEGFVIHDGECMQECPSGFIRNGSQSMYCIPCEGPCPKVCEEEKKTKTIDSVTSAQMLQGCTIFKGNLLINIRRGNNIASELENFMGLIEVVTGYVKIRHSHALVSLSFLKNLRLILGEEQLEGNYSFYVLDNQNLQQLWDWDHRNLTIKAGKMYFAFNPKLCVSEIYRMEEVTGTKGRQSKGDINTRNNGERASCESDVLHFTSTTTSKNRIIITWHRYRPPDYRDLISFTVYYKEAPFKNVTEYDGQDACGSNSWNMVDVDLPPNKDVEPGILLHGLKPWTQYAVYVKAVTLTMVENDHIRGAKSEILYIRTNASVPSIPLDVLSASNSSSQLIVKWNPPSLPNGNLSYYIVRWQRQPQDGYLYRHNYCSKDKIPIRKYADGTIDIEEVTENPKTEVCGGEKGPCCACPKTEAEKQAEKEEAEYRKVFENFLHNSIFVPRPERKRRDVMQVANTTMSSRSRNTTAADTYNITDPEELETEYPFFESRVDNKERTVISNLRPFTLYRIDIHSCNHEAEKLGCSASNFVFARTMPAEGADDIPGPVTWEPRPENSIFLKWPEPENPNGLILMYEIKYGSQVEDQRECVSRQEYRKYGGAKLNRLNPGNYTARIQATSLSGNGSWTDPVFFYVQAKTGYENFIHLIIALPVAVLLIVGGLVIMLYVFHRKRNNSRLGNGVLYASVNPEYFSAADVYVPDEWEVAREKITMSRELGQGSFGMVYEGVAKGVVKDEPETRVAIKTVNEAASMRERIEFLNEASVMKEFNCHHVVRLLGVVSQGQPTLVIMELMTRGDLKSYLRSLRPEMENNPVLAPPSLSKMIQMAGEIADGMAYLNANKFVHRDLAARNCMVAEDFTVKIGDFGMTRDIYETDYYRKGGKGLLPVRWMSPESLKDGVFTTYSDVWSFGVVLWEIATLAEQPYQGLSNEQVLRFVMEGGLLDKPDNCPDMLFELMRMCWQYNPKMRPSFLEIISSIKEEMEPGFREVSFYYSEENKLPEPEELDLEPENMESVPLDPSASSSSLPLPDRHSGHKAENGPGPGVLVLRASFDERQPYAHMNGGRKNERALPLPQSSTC
Text: Total protein was quantified using the BioRad Dc Protein Assay (BioRad, Hercules, Calif.).

GEO CRC cell line = experiment: SRB proliferation assay, 72 h; assay type: cell-based; settings: Homo sapiens
Experimental: as §1
Cell Lines and Culture: Twenty-seven human colon cancer cell lines, were obtained from American Type Culture Collection (Manassas, Va.). The GEO cells were a generous gift from Dr. Fortunato Ciardiello (Cattedra di Oncologia Medica, Dipartimento Medico-Chirurgico di Internistica Clinica e Sperimentale “F Magrassi e A Lanzara,” Seconda Università degli Studi di Napoli, Naples). All cells except GEO were grown in RPMI medium supplemented with 10% fetal bovine serum, 1% non-essential amino acids, 1% penicillin/streptomycin and were maintained at 37° C. in an incubator under an atmosphere containing 5% CO2. GEO cells were grown in DMEM/F12 supplemented with 10% fetal bovine serum, 1% non-essential amino acids, 1% penicillin/streptomycin. The cells were routinely screened for the presence of mycoplasma (MycoAlert, Cambrex Bio Science, Baltimore, Md.) and were exposed to OSI-906 when they reached approximately 70% confluence. OSI-906 was provided by OSI Pharmaceuticals, (Boulder, Colo.) and prepared as a 10 mM stock solution in DMSO.

| IC50 (HCT116 CRC cell line; HCT116, 72 hours, 0.05-5 μM, read-out: IC50, growth inhibition by PQIP (SRB)) | IGF-2 induced tyrosine autophosphorylation of IGF1R (IGF1R; HCT116) | IGF-2 induced tyrosine autophosphorylation of IGF1R (IGF1R; HT29) | IC50 (HCT116 CRC cell line; HCT116, 72 hours, read-out: IC50, proliferation, OSI-906 (SRB)) | IC50 (HCT116 CRC cell line; HCT116, read-out: S/I/R to OSI-906) | IC50 (HCT116 CRC cell line; HCT116 stably transfected with MT2A shRNA, read-out: IC50, proliferation, OSI-906 (SRB) after MT2A shRNA knockdown) | SMILES | combination index (CI) values, PQIP and chemotherapy (HCT116 CRC cell line; HCT116, PQIP with SN38, oxaliplatin or 5-Fluorouracil concurrently 72 h, nearly all combinations, Chou and Talalay) | shift in sensitivity to PQIP after shRNA knockdown (HCT116 CRC cell line; HCT116 transfected with MT2A shRNA vs parental or scramble shRNA control) | shift in sensitivity to PQIP after shRNA knockdown (HCT116 CRC cell line; HCT116 transfected with caldesmon shRNA vs parental or scramble shRNA control) | IC50 (GEO CRC cell line; 72 hours, read-out: IC50, proliferation, OSI-906 (SRB)) | IC50 (GEO CRC cell line; read-out: S/I/R to OSI-906) |
| --- | --- | --- | --- | --- | --- | --- | --- | --- | --- | --- | --- |
| > 5 µM | almost fully inhibits | almost fully inhibits |  |  |  | CN1CCN([C@H]2C[C@@H](c3nc(-c4ccc5ccc(-c6ccccc6)nc5c4)c4c(N)nccn43)C2)CC1 [PQIP, cis-3-[3-(4-Methyl-piperazin-1-yl)-cyclobutyl]1-(2-phenyl-quinolin-7-yl)-imidazo[1,5-a]pyrazin-8-ylamine] | 0.6-1.4 | left shift in sensitivity | no left shift in sensitivity |  |  |
|  |  |  | > 5 µM | > 5 µM | 5 µM | C[C@]1(O)C[C@@H](c2nc(-c3ccc4ccc(-c5ccccc5)nc4c3)c3c(N)nccn32)C1 [OSI-906, cis-3-[8-amino-1-(2-phenyl-quinolin-7-yl)-imidazo[1,5-a]pyrazin-3-yl]-1-methyl-cyclobutanol] |  |  |  | ≤ 1.5 µM | ≤ 1.5 µM |
